Where two headings read alike, the source gives them in different places.
Assays:
[1] = test system: RAW 264.7 monocyte/macrophage murine cells; assay: MTT growth inhibition on RAW 264.7 cells; type: cell-based; details: Mus musculus, RAW264.7, RAW 264.7, MTT; for IC20: 20% growth inhibition; for IC80: 80% growth inhibition
Description: (§1) A stock solution was frozen and stored at […]. Before the experiments, this solution was diluted in cell-culture medium to the adequate concentrations for each experiment. […] For nitrite assay, subcytotoxic concentrations (3/4IC50, 1/2IC50, and 1/4IC50), were used to ensure that the NO inhibitory potential was not due to a possible cytotoxic effect. The concentrations of 3/4IC50, 1/2IC50, and 1/4IC50 were used for the cell-cycle analysis. All experiments were measured and compared with control (untreated cells after 24, 48, or 72 h of treatment.)
In all experiments, monolayer cells were grown to 80–90% confluence, in sterile cell culture flasks. All cell lines used were purchased from the cell bank of the University of Granada, Spain.
The cytotoxicity assay was performed by the MTT (3-(4,5-dimethylthiazol-2-yl)-2,5-diphenyltetrazolium bromide) method.[21] […] All tested compounds were prepared in fresh growth medium. After 24 h, an additional 100 μL of medium with the corresponding concentrations of products (only medium in the control wells) was added to the corresponding wells, at various final concentrations (0–100 μg/mL). […] After 1.5 h of incubation, formazan was resuspended in 100 μL of DMSO, and each concentration was tested in triplicate.
Cytotoxicity experimental data were fitted to a sigmoidal function (y = ymax/(x/a)^−b) by nonlinear regression. […] Similar analyses were performed to obtain the IC50 of NO production. All data shown here are representative of at least two independent experiments performed in triplicate. All quantitative data were summarized as the mean ± standard deviation (SD).

[2] = test system: NO production in LPS-activated RAW 264.7 macrophage murine cells; assay: Inhibition of NO (nitrite) release, Griess reaction; type: cell-based
Description: The concentrations of nitrites were determined by the Griess reaction.
as §1
Nitrites production was analyzed through the Griess reaction. This nitrite concentration was used as an indicator of NO production.[35] Briefly, RAW 264.7 cells were plated at 6 × 10^3 cells/well in 24-well cell culture plates and supplemented with 10 μg/mL of lipopolysaccharide (LPS). […] The supernatants were collected at 48 and 72 h, to determine their nitrite concentrations and/or stored at −80 °C for further use.
The Griess reaction was performed taking 150 μL of supernatant test samples or sodium nitrite standard (0–120 μM) and mixed with 25 μL of Griess reagent A (0.1% N,N-(1-naphthyl) ethylenediaminedihydrochloride) and 25 μL of Griess reagent B (1% sulfanilamide in 5% of phosphoric acid), in a 96-well plate. After 15 min of incubation at room temperature, the absorbance was measured at 540 nm in an ELISA plate reader (Tecan Sunrise MR20–301, TECAN, Austria). The absorbance was referred to a nitrite standard curve to determine the concentration of nitrite in the supernatant of each experimental sample. The percentage of NO production was determined, assigning 100% at the increase between negative control (untreated cells) and positive control (cells only treated with 10 μg/mL of LPS).

[3] = test system: B16-F10 murine melanoma cells; assay: MTT cancer cell proliferation assay, B16-F10; type: cell-based; details: B16-F10, 72 h
Description: (§2) The five newly synthesized diterpenoids were evaluated for their cytotoxic effects against three selected tumor cell lines, B16-F10 murine melanoma cells, HT29 human colon adenocarcinoma cells, and HepG2 human hepatocarcinoma cells at increasing concentrations (0–100 μg/mL). After 72 h of treatment, cell viability was determined by an MTT assay, where the tetrazolium dye was transformed into formazan in the mitochondria of viable cells, its absorbance measured at 570 nm and expressed as a percentage with respect to untreated control cells (S3 Figure.). The concentrations required for 20, 50, and for 80% growth inhibition (IC20, IC50, and IC80) were also determined for each compound (Table 2).
as §1
(§3) Human colorectal adenocarcinoma cell line HT29 (ECACC no. 9172201; ATCC no. HTB-38), human hepatocarcinome cell line HepG2 (ECACC no. 85011430), mouse melanoma cells B16-F10 (ATCC no. CRL-6475), and murine monocyte/macrophage-like RAW 264.7 cell line (ATCC no, TIB-71) were cultured in DMEM (Dulbecco’s modified Eagle’s medium) supplemented with 2 mM glutamine, 10% heat-inactivated FCS (fetal calf serum), 10 000 units/mL of penicillin and 10 mg/mL of streptomycin, (for all cancer cell lines), 50 μg/mL of gentamicin (only for RAW 264.7 cell line), and incubated at 37 °C, in an atmosphere of 5% CO2 and 95% humidity. The culture media were changed every 48 h, and the confluent cultures were separated with a trypsin solution (0.25% EDTA). In all experiments, monolayer cells were grown to 80–90% confluence, in sterile cell culture flasks. All cell lines used were purchased from the cell bank of the University of Granada, Spain.
(§4) The cytotoxicity assay was performed by the MTT (3-(4,5-dimethylthiazol-2-yl)-2,5-diphenyltetrazolium bromide) method.[21] To quantify the cytotoxicity of compounds, the fresh and suspended cells were seeded in 96-well plates to a volume of 100 μL at 6.0 × 10^3 cells/mL for HT29 and RAW 264.7 cell lines, at 5.0 × 10^3 cells/mL for B16-F10 cells and 15.0 × 10^3 for Hep G2. Then, cells were incubated to adhere over 24 h at 37 °C with 5% CO2. All tested compounds were prepared in fresh growth medium. After 24 h, an additional 100 μL of medium with the corresponding concentrations of products (only medium in the control wells) was added to the corresponding wells, at various final concentrations (0–100 μg/mL). Finally, after 72 h of incubation at 37 °C with 5% CO2, the medium with the compounds were removed and 100 μL of MTT solution (0.5 mg/mL) in 50% of PBS 50% of medium was added to each well. After 1.5 h of incubation, formazan was resuspended in 100 μL of DMSO, and each concentration was tested in triplicate. Relative cell viability, with respect to untreated control cells, was measured by absorbance at 570 nm on an ELISA plate reader (Tecan Sunrise MR20-301, TECAN, Austria).
(§5) Cytotoxicity experimental data were fitted to a sigmoidal function (y = ymax/(x/a)^−b) by nonlinear regression. […] These analyses were performed using SigmaPlot 12.5 software. Similar analyses were performed to obtain the IC50 of NO production. All data shown here are representative of at least two independent experiments performed in triplicate. All quantitative data were summarized as the mean ± standard deviation (SD).

[4] = test system: HepG2 human hepatocarcinoma cells; assay: MTT cancer cell proliferation assay, HepG2; type: cell-based; details: HepG2, 72 h
Description: as §2, §1, §3, §4, §5

[5] = test system: HT29 human colon adenocarcinoma cells; assay: MTT cancer cell proliferation assay, HT29; type: cell-based
Description: as §2, §1, §3, §4, §5

NO release = details: read-out: IC50 of NO inhibitory effect; cited from earlier work
HepG-2 cancer cell line = test system: HepG-2 cancer cell line; set-up: method as in PMID 23806110; details: HepG-2 cancer cell line ref 10; cited from earlier work
MCF-7 cancer cell line = test system: MCF-7 cancer cell line; set-up: method as in PMID 23806110; details: MCF-7 cancer cell line ref 10; cited from earlier work
[6] = Mus musculus, MTT, read-out: IC50
[7] = Mus musculus, MTT, read-out: IC20
[8] = Homo sapiens, MTT, read-out: IC50
[9] = Homo sapiens, MTT, read-out: IC20
[10] = Homo sapiens, HT-29, HT29, 72 h, MTT
[11] = Homo sapiens, HT-29, HT29, 72 h, MTT, read-out: IC20

Row | Compound | IC20 [1] [µM] | IC80 [1] [µM] | inhibition of NO release ([2]; 48 h, 1/2IC50 concentration) [%] | inhibition of NO release ([2]; 48 h, 3/4IC50 concentration) [%] | inhibition of NO release ([2]; 72 h, 3/4IC50 concentration) [%] | IC50 [1] [µM] | IC50 ([3]; MTT, read-out: IC50) [µM] | IC50 [3, 6] [µM] | IC80 ([3]; Mus musculus, MTT) [µM] | IC20 [3, 7] [µM] | IC50 ([4]; MTT, read-out: IC50) [µM] | IC50 [4, 8] [µM] | IC80 ([4]; Homo sapiens, MTT) [µM] | IC20 [4, 9] [µM] | IC80 [5, 10] [µM] | IC20 [5, 11] [µM] | also measured
1 | COC(=O)[C@]1(C)CCC[C@]2(C)c3cc4c(c(C)c3CC[C@@H]12)CC(=O)O4 [Compound 6, (4R,4aR,11bS)-Methyl 4,7,11b-trimethyl-9-oxo-1,2,3,4,4a,5,6,8,9,11b-decahydrophenanthro[3,2-b]furan-4-carboxylate] | 111 ± 24 | 254.7 ± 1.48 | 77.80 | 88.33 | 98 |  |  |  |  |  |  |  |  |  |  |  | IC50 ([3]; MTT): > 100 µM; IC50 ([3]; MTT, listed as Taepeenin F (6)): 257 ± 24 µM; IC20 ([3]; Mus musculus): 234 ± 4.12 µM; IC50 ([4]; MTT): > 100 µM; IC50 ([4]; MTT, listed as Taepeenin F (6)): 237 ± 9.69 µM; IC20 ([4]; Homo sapiens): 112 ± 22 µM; IC50 ([5]; HT29, 72 h, MTT): > 100 µM; IC50 ([5]; HT29, 72 h, MTT, listed as Taepeenin F (6)): 391 ± 39.5 µM; IC20 ([5]; Homo sapiens, HT-29, 72 h): 124.2 ± 1.11 µM
2 | COC(=O)[C@]1(C)CCC[C@]2(C)c3cc(O)c(C(C)C)c(C)c3CC[C@@H]12 [Compound 17, (1R,4aS,10aR)-Methyl 6-hydroxy-7-isopropyl-1,4a,8-trimethyl-1,2,3,4,4a,9,10,10a-octahydrophenanthrene-1-carboxylate] | 27.8 ± 8.38 | 247 ± 6.3 | 86.5 | 89.70 | 99 | 129 ± 7.06 | 133 ± 8.17 | > 85.6 | 259.3 ± 1.35 | 33.3 ± 5.94 | 137 ± 13.9 | > 85.6 | 274 ± 41.2 | 32.6 ± 3.41 | 311 ± 8.32 | 122 ± 24.2 | 
3 | COC(=O)[C@]1(C)CCC[C@]2(C)c3cc(O)c(CO)c(C)c3CC[C@@H]12 [Compound 22, (1R,4aS,10aR)-Methyl 6-hydroxy-7-(hydroxymethyl)-1,4a,8-trimethyl-1,2,3,4,4a,9,10,10a-octahydrophenanthrene-1-carboxylate] | 92.1 ± 1.13 | 114.2 ± 0.17 | 70.94 | 86.96 | 96 | 101.8 ± 0.52 | 102 ± 4.36 | > 85.6 | 122 ± 4.22 | 85.5 ± 6.16 | 125 ± 2.36 | > 85.6 | 141 ± 6.51 | 110.1 ± 0.84 | 114 ± 7.35 | 67.5 ± 4.61 | IC50 ([5]; HT29, 72 h, MTT, read-out: IC50): 85.6 ± 4.99 µM; IC50 ([5]; Homo sapiens, HT-29, 72 h, HT29, 72 h, MTT, read-out: IC50): > 85.6 µM; melting point: 98 to 101 °C
4 | caesalmin A |  |  |  |  |  |  |  |  |  |  |  |  |  |  |  |  | IC50 (NO release): ~25.4 µM
5 | caesalpin A [Compound 8] |  |  |  |  |  |  |  |  |  |  |  |  |  |  |  |  | IC50 (HepG-2 cancer cell line): 4.7 µM; IC50 (MCF-7 cancer cell line): 2.1 µM
